Counter-ions that a name gives are not always drawn.

Our source for the melting point values is patent US7291641B2, “Derivatives of heterocycles with 5 members, their preparation and their use as medicaments” (Societe de Conseils de Recherches et d'Applications …, priority 1999, dated 2007).

Turning to `CCCCC(=O)NCCc1nc(-c2ccc(-c3ccccc3)cc2)c[nH]1` [Example 32, N-[2-(4-[1,1′-biphenyl]-4-yl-1H-imidazol-2-yl)ethyl]pentanamide], the melting point lay in the range of 166 to 167 °C.

The compound `CN(CC#N)Cc1nc(-c2cc(C(C)(C)C)c(O)c(C(C)(C)C)c2)cs1` [Example 3, 2-[({4-[3,5-di(tert-butyl)-4-hydroxyphenyl]-1,3-thiazol-2-yl}methyl)(methyl)amino]acetonitrile] gave a melting point of 150 to 156 °C.

In turn, `O=C(NCCc1nc(-c2ccc(-c3ccc(Br)cc3)cc2)c[nH]1)OCCCC(F)(F)F` [Example 344, 4,4,4-trifluorobutyl 2-[4-(4′-bromo-1,1′-biphenyl-4-yl)-1H-imidazol-2-yl]ethylcarbamate] registered a melting point of 176.5 °C.

With `c1ccc(-c2c[nH]c([C@@H](NC3CCC3)C3CCCCC3)n2)cc1` (as salt: hydrochloride) [Example 83, N-[(S)-cyclohexyl(4-phenyl-1H-imidazol-2-yl)methyl]-cyclobutanamine], the melting point was in the range of 210 to 212 °C.

The compound `N[C@H](c1nc(-c2ccccc2)c[nH]1)C1CCCCC1` (as salt: hydrochloride) [Example 80, (S)-cyclohexyl(4-phenyl-1H-imidazol-2-yl)methylamine] had a melting point of 208 to 210 °C.

`O=C(NCCc1nc(-c2ccc(-c3ccccc3)cc2)c[nH]1)OCC1CCC1` [Example 285, cyclobutylmethyl 2-(4-[1,1′-biphenyl]-4-yl-1H-imidazol-2-yl)ethylcarbamate] yielded a melting point of 144 to 145 °C.

The compound `CCCCNC(=O)NCCc1nc(-c2ccc(-c3ccccc3)cc2)c[nH]1` [Example 34] gave a melting point of 178 °C.

For `COCCOC(=O)NCCc1nc(-c2ccc(-c3ccccc3)cc2)c[nH]1` [Example 288, 4-[2-(2-{[(2-methoxyethoxy)carbonyl]amino}ethyl)-1H-imidazol-4-yl]-1,1′-biphenyl], the melting point came out at 123.3 °C.

Compound `O=C(NCCc1nc(-c2ccc(N3CCCC3)cc2)c[nH]1)OCc1ccccc1` [Example 390, benzyl 2-[4-(4-pyrrolidin-1-ylphenyl)-1H-imidazol-2-yl]ethylcarbamate] came in with a melting point of 122.4 °C.

The compound `CCCCCCC(NCc1ccccc1)c1nc(-c2ccc(N(CC)CC)cc2)c[nH]1` (racemic) (as salt: hydrochloride) [Example 230, (R,S)-N-benzyl-N-(1-{4-[4-(diethylamino)phenyl]-1H-imidazol-2-yl}heptyl)amine] registered a melting point of 170 °C.

Regarding `CC(C)(C)OC(=O)NCc1nc(-c2ccccc2)c(-c2ccccc2)[nH]1` [Example 157, tert-butyl (4,5-diphenyl-1H-imidazol-2-yl)methylcarbamate], the melting point was in the range of 144 to 146 °C.

Regarding `CCCCCCC(NC1CCCCC1)c1nc(-c2ccc(-c3ccccc3)cc2)c[nH]1` (racemic) (as salt: hydrochloride) [Example 252, (R,S)-N-[1-(4-[1,1′-biphenyl]-4-yl-1H-imidazol-2-yl)heptyl]-cyclohexanamine], the melting point lay in the range of 168 to 170 °C.

`CCCCOC(=O)NCCc1nc(-c2ccc(-c3ccccc3Br)cc2)c[nH]1` [Example 456, butyl 2-[4-(2′-bromo-1,1′-biphenyl-4-yl)-1H-imidazol-2-yl]ethylcarbamate] displayed a melting point of 109.6 °C.

Compound `CCCCCCC(NCc1ccccc1)c1nc(-c2ccc(C#N)cc2)c[nH]1` (racemic) [Example 217, (R,S)-4-{2-[1-(benzylamino)heptyl]-1H-imidazol-4-yl}benzonitrile] came in with a melting point of 188 to 189 °C.

Take `Cn1cc(-c2ccc(F)cc2)nc1[C@@H](NC1CCCCC1)C1CCCCC1` (as salt: hydrochloride) [Example 279, N-{(S)-cyclohexyl[4-(4-fluorophenyl)-1-methyl-1H-imidazol-2-yl]methyl}cyclohexanamine]: the melting point was 190 to 194 °C.

For the compound `Fc1ccc(-c2c[nH]c([C@@H](NCC3CCCCC3)C3CCCCC3)n2)cc1` (as salt: hydrochloride) [Example 295, (S)-1-cyclohexyl-N-(cyclohexylmethyl)-1-[4-(4-fluorophenyl)-1H-imidazol-2-yl]methanamine], the melting point lay in the range of 190 to 192 °C.

On to `CC(C)(C)OC(=O)N[C@H](CCc1ccccc1)c1nc(-c2ccc(-c3ccccc3)cc2)c[nH]1` [Example 167, 4-(2-{(1R)-1-[(tert-butoxycarbonyl)amino]-3-phenylpropyl}-1H-imidazol-4-yl)-1,1′-biphenyl], for which the melting point was in the range of 154 to 156 °C.

`CC[C@H](NCc1ccccc1)c1nc(-c2ccc(-c3ccccc3)cc2)c[nH]1` [Example 198, (1S)-N-benzyl-1-(4-[1,1′-biphenyl]4-yl-1H-imidazol-2-yl)-1-propanamine] displayed a melting point of 220 to 222 °C.

Regarding `NC1(c2nc(-c3ccccc3)c[nH]2)CCCCC1` (as salt: hydrochloride), the melting point fell in the range of 202 to 204 °C.

On to `CC(C)(C)OC(=O)N[C@H](Cc1c[nH]c2ccccc12)c1nc(-c2ccccc2)c[nH]1` [Example 96, tert-butyl (1R)-2-(1H-indol-3-yl)-1-(4-phenyl-1H-imidazol-2-yl)-ethylcarbamate], for which the melting point lay in the range of 208 to 210 °C.

`CC(C)[C@@H](NC1CCCCC1)c1nc(-c2ccc(F)cc2)c[nH]1` [Example 276, N-{(1R)-1-[4-(4-fluorophenyl)-1H-imidazol-2-yl]-2-methylpropyl}-cyclohexanamine] came in with a melting point of 224 to 226 °C.

`CC(C)Cc1ccc(-c2c[nH]c(CCNC(=O)OCc3ccccc3)n2)cc1` [Example 446, benzyl 2-[4-(4-isobutylphenyl)-1H-imidazol-2-yl]ethylcarbamate]: the melting point was found to be 125.2 °C.

In the case of `CCCCCCC(NC1CCC1)c1nc(-c2ccccc2)c[nH]1` (racemic) [Example 240, (R,S)-N-[1-(4-phenyl-1H-imidazol-2-yl)heptyl]cyclobutanamine], the melting point lay within 148 to 150 °C.

The compound `CCCCOC(=O)NCCc1nc(-c2ccc(C(C)(C)C)cc2)c[nH]1` [Example 294, butyl 2-[4-(4-tert-butylphenyl)-1H-imidazol-2-yl]ethylcarbamate] yielded a melting point of 106 to 108 °C.

`c1[nH]c([C@@H](NC2CCCCC2)C2CCCCC2)nc1C1CCCCC1` (as salt: hydrochloride) [Example 82, N-[(S)-cyclohexyl(4-cyclohexyl-1H-imidazol-2-yl)methyl]-cyclohexanamine] showed a melting point of 180 to 182 °C.

`c1ccc(CNCCCc2nc(-c3ccc(-c4ccccc4)cc3)c[nH]2)cc1` [Example 178, N-benzyl-3-(4-[1,1′-biphenyl]-4-yl-1H-imidazol-2-yl)-1-propanamine] yielded a melting point of 254 to 256 °C.

As to `CCCCCCC(NC1CCCCC1)c1nc(-c2ccccc2)c[nH]1` (racemic) [Example 76, (R,S)-N-[1-(4-phenyl-1H-imidazol-2-yl)heptyl]cyclohexanamine], the melting point was 68 to 70 °C.

`c1ccc(CN[C@H](Cc2c[nH]c3ccccc23)c2nc(-c3ccccc3)c(-c3ccccc3)[nH]2)cc1` [Example 94, (1R)-N-benzyl-1-(4,5-diphenyl-1H-imidazol-2-yl)-2-(1H-indol-3-yl)ethanamine] registered a melting point of 146 to 148 °C.

`CC(C)(C)OC(=O)N[C@H](CCc1ccccc1)c1nc(-c2ccccc2)c[nH]1` [Example 129, tert-butyl (1R)-3-phenyl-1-(4-phenyl-1H-imidazol-2-yl)propylcarbamate] displayed a melting point of 72 to 74 °C.

For the compound `NCCCc1nc(-c2ccc(F)cc2)c[nH]1` (as salt: hydrochloride) [Example 343, 3-[4-(4-fluorophenyl)-1H-imidazol-2-yl]propan-1-amine], the melting point was in the range of 245 to 246 °C.

`c1ccc(OCCN[C@H](Cc2c[nH]c3ccccc23)c2nc(-c3ccccc3)cs2)cc1` [Example 112, (1R)-2-(1H-indol-3-yl)-N-(2-phenoxyethyl)-1-(4-phenyl-1,3-thiazol-2-yl)ethanamine] yielded a melting point of 124 to 126 °C.

In the case of `CC(C)(C)NC(=O)NCCc1nc(-c2ccc(-c3ccccc3)cc2)c[nH]1` [Example 177, 4-[2-(2-{[(tert-butylamino)carbonyl]amino}ethyl)-1H-imidazol-4-yl]-1,1′-biphenyl], the melting point was 195 to 196 °C.

`CCCCOC(=O)NCCc1nc(-c2cc(C(C)(C)C)c(O)c(C(C)(C)C)c2)c[nH]1` [Example 330, butyl 2-[4-(3,5-ditert-butyl-4-hydroxyphenyl)-1H-imidazol-2-yl]ethylcarbamate] showed a melting point of 180.9 °C.

As to `CCCCCCC(NCc1ccccc1)c1nc(-c2cccc(Br)c2)c[nH]1` (racemic) (as salt: acetate) [Example 193, (R,S)-N-benzyl-1-[4-(3-bromophenyl)-1H-imidazol-2-yl]-1-heptanamine], the melting point fell in the range of 115 to 116 °C.

In the case of `CCCCCCC(NC(=O)OC(C)(C)C)c1nc(-c2ccc(-c3ccccc3)cc2)c[nH]1` (racemic) [Example 192, (R,S)-4-(2-{1-[(tert-butoxycarbonyl)amino]heptyl}-1H-imidazol-4-yl)-1,1′-biphenyl], the melting point was 142 to 144 °C.

The compound `CCC[C@@H](N)c1nc(-c2ccc(-c3ccccc3)cc2)c[nH]1` (as salt: hydrochloride) [Example 209, (1R)-1-(4-[1,1′-biphenyl]-4-yl-1H-imidazol-2-yl)-1-butanamine] gave a melting point of 155.4 °C.

Compound `CCCCCCC(N)c1nc(-c2ccc(C)cc2)c[nH]1` (racemic) (as salt: hydrochloride) [Example 184, (R,S)-1-[4-(4-methylphenyl)-1H-imidazol-2-yl]-1-heptanamine] gave a melting point of 157 to 160 °C.

Regarding `CCCCOC(=O)NCCc1nc(-c2ccc(-c3ccccc3)cc2)c(C)[nH]1` [Example 393, butyl 2-[4-(1,1′-biphenyl-4-yl)-5-methyl-1H-imidazol-2-yl]ethylcarbamate], the melting point is 143 to 144 °C.

`CCCCCCC(NCc1ccccc1)c1nc(-c2ccc(-c3ccccc3)cc2)c[nH]1` (racemic) [Example 195, (R,S)-N-benzyl-1-(4-[1,1′-biphenyl]-4-yl-1H-imidazol-2-yl)-1-heptanamine] came in with a melting point of 100 to 102 °C.

Usually melting point stands for the temperature of the solid-liquid transition.
